{"source": "patent US20140243239A1", "about": "“MULTIPLEXED KINASE INHIBITOR BEADS AND USES THEREOF” (University of North Carolina at Chapel Hill, priority 2011, published 2014)", "test_system": "RTKs", "assay": "RTK tyrosine phosphorylation/expression in SUM159 cells (RTK arrays, western blot)", "assay_type": "cell-based, human", "details": "5 μM AZD6244; 50 nM BEZ235 (FIG. 3H)", "protocol": "Western blotting and RTK arrays: Western blotting and RTK array analysis were performed as previously described (Amin et al., 2010). Amin et al. 2010 Sci Transl Med 2, 16ra17. Detailed methods and antibodies are provided in Supplemental Experimental Procedures.\nWestern blotting: Proteins from cell lysates were separated by SDS-PAGE chromatography, transferred to nitrocellulose membranes, and probed with the indicated primary antibodies. Antibodies recognizing pAKT (S473), pAKT (T308), AURA, pAXL (Y702), AXL, c-Myc, DDR1, EGFR, pERK1/2 (T202/Y204), pHER3 (Y1197), MAX, pMEK1/2 (S217/S221), MEK1/2, MKP3, pP70S6K (T389), pPDGFRβ (Y751), pPDGFRβ (Y1009), pPDGFR (Y857), PDGFRβ, pRAF (S338), pRSK1 (T359/S363), pVEGFR2 (Y1175), VEGFR2 were obtained from Cell Signaling Technology. Antibodies for Cyclin A2, Cyclin B1, Cyclin D1, ERK2, RAF, and pRAF (S259) were obtained from Santa Cruz Biotechnology. The antibody recognizing Bim was obtained from Chemicon. The antibody recognizing p-c-Myc (S62) was obtained from Abeam. Secondary HRP-anti-rabbit and HRP-anti-goat secondary antibodies were from Jackson Immunoresearch Laboratories and Santa Cruz Biotechnology, respectively. Western blots were visualized by incubation with SuperSignal West Pico Chemiluminescent Substrate (Thermo Scientific).\nRTK arrays: Cells were harvested in RTK array lysis buffer containing 20 mM Tris-HCl (pH 8.0), 1% NP-40, 10% glycerol, 137 mM NaCl, 2 mM EDTA, 1×EDTA-free protease inhibitor cocktail (Roche), and 1% each of phosphatase inhibitor cocktails 1 and 2 (Sigma). After incubating on ice for 20 minutes, cell debris was pelleted at 4° C. Lysates (500 μg protein) were applied to R&D Systems Proteome Profiler™ Human Phospho-RTK antibody arrays. Washing and secondary antibody steps were performed according to the manufacturer“s instructions. RTK arrays were visualized by SuperSignal West Pico Chemiluminescent Substrate (Thermo Scientific)."}
{"smiles": "Cn1cnc2c(F)c(Nc3ccc(Br)cc3Cl)c(C(=O)NOCCO)cc21", "note": "[AZD6244]", "values": [{"measurement": "RTK phosphorylation profile", "value": "induced PDGFRβ, VEGFR2 and AXL phosphorylation"}]}
